Source: PubChem BioAssay AID330 (DTP/NCI, 2004)
Values joined by “and” are separate entries in the source; they are usually repeats but may differ in a detail not shown here. Identical values can stand only once. Inconclusive results and toxic doses are left out. How the source made its calls: active means survival T/C of 150% or more; inactive means T/C below 125% in these data. Square brackets hold non-standard residues; d marks the D form. Peptide text beside a SMILES is read from it. ξ: configuration not given here. ξP = O=C(O)C1CCCN1

System: P388 leukemia ip, CD2F1 mice, survival T/C
Assay: NCI In Vivo Anticancer Drug Screen. Data for tumor model P388 Leukemia (intraperitoneal) in CD2F1 (CDF1) mice
Settings: endpoint: median survival time, higher = longer survival
Outline: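 Mice carrying the transplanted tumor received test compound or vehicle. Survival was recorded in each group, and the value is the treated-group measurement divided by that of the vehicle-treated control group.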

[1] = dose: 100.0 mg/kg/injection, schedule: Q04DX003 (ip), vehicle: Klucel (hydroxypropylcellulose) (HPC)
[2] = dose: 200.0 mg/kg/injection, schedule: Q04DX003 (ip), vehicle: Klucel (hydroxypropylcellulose) (HPC)
[3] = dose: 400.0 mg/kg/injection, schedule: Q04DX003 (ip), vehicle: Klucel (hydroxypropylcellulose) (HPC)
[4] = dose: 50.0 mg/kg/injection, schedule: Q01DX005 (ip), vehicle: Klucel (hydroxypropylcellulose) (HPC)
[5] = dose: 100.0 mg/kg/injection, schedule: Q01DX005 (ip), vehicle: Klucel (hydroxypropylcellulose) (HPC)
[6] = dose: 200.0 mg/kg/injection, schedule: Q01DX005 (ip), vehicle: Klucel (hydroxypropylcellulose) (HPC)
[7] = dose: 60.0 mg/kg/injection, schedule: Q01DX005 (ip), vehicle: saline
[8] = dose: 50.0 mg/kg/injection, schedule: Q01DX009 (ip), vehicle: saline with Tween-80
[9] = dose: 100.0 mg/kg/injection, schedule: Q01DX009 (ip), vehicle: saline with Tween-80
[10] = dose: 200.0 mg/kg/injection, schedule: Q01DX009 (ip), vehicle: saline with Tween-80
[11] = dose: 50.0 mg/kg/injection, schedule: Q01DX005 (ip), vehicle: saline with Tween-80
[12] = dose: 100.0 mg/kg/injection, schedule: Q01DX005 (ip), vehicle: saline with Tween-80
[13] = dose: 200.0 mg/kg/injection, schedule: Q01DX005 (ip), vehicle: saline with Tween-80
[14] = dose: 50.0 mg/kg/injection, schedule: Q01DX009 (ip), vehicle: Klucel (hydroxypropylcellulose) (HPC)
[15] = dose: 100.0 mg/kg/injection, schedule: Q01DX009 (ip), vehicle: Klucel (hydroxypropylcellulose) (HPC)
[16] = dose: 60.0 mg/kg/injection, schedule: Q01DX005 (ip), vehicle: Klucel (hydroxypropylcellulose) (HPC)
[17] = dose: 120.0 mg/kg/injection, schedule: Q01DX005 (ip), vehicle: Klucel (hydroxypropylcellulose) (HPC)
[18] = dose: 240.0 mg/kg/injection, schedule: Q01DX005 (ip), vehicle: Klucel (hydroxypropylcellulose) (HPC)
[19] = dose: 50.0 mg/kg/injection, schedule: Q01DX005 (ip), vehicle: saline
[20] = dose: 100.0 mg/kg/injection, schedule: Q01DX005 (ip), vehicle: saline
[21] = dose: 200.0 mg/kg/injection, schedule: Q01DX005 (ip), vehicle: saline

Measured: T/C

COc1cc(OC)c(C(=O)O)cc1Cl
inactive: [1] 100 % of control | [2] 101 % of control | [3] 100 % of control

CN(C)C1=CC(=S)NC(c2ccccc2)C1 (configuration not stated)
inactive: [4] 103 % of control | [5] 100 % of control | [6] 105 % of control

Cc1ccoc1OP(=O)(N(C)C)N(C)C
inactive: dose: 15.0 mg/kg/injection, schedule: Q01DX005 (ip), vehicle: saline 102 % of control | dose: 30.0 mg/kg/injection, schedule: Q01DX005 (ip), vehicle: saline 100 % of control | [7] 108 % of control

O=C(NC(=S)c1ccc(Br)cc1)Nc1ccccc1
inactive: dose: 2.5 mg/kg/injection, schedule: Q01DX009 (ip), vehicle: saline with Tween-80 90 % of control | dose: 5.0 mg/kg/injection, schedule: Q01DX009 (ip), vehicle: saline with Tween-80 103 % of control | dose: 10.0 mg/kg/injection, schedule: Q01DX009 (ip), vehicle: saline with Tween-80 88 % of control

Cc1cnc2c([N+](=O)[O-])cc(C)c(C)c2c1
inactive: [8] 99 % of control | [9] 99 % of control | [10] 92 % of control

CC(=O)CSC1=CC(C)(C)CC1=O
inactive: [4] 96 % of control | [5] 99 % of control | [6] 99 % of control

O=C1CCCC/C1=C/c1ccccc1
inactive: dose: 25.0 mg/kg/injection, schedule: Q01DX005 (ip), vehicle: distilled water + Tween-80 + alcohol 98 % of control | dose: 50.0 mg/kg/injection, schedule: Q01DX005 (ip), vehicle: distilled water + Tween-80 + alcohol 98 % of control | dose: 100.0 mg/kg/injection, schedule: Q01DX005 (ip), vehicle: distilled water + Tween-80 + alcohol 100 % of control | dose: 200.0 mg/kg/injection, schedule: Q01DX005 (ip), vehicle: distilled water + Tween-80 + alcohol 98 % of control

c1cn2cnnc2n2cnnc12
inactive: [11] 100 % of control | [12] 105 % of control | [13] 97 % of control

CCc1ccc(/C=C/c2ccc(O)c3ncccc23)[n+](C)c1
inactive: dose: 4.0 mg/kg/injection, schedule: Q04DX003 (ip), vehicle: saline 100 % of control | dose: 8.0 mg/kg/injection, schedule: Q04DX003 (ip), vehicle: saline 104 % of control | dose: 16.0 mg/kg/injection, schedule: Q04DX003 (ip), vehicle: saline 118 % of control

CC12CCC3C(CCC4CC5OC(=O)CC5CC43C)C1CCC2=O (configuration not stated)
inactive: dose: 50.0 mg/kg/injection, schedule: Q04DX003 (ip), vehicle: Klucel (hydroxypropylcellulose) (HPC) 102 % of control | [1] 107 % of control | [2] 106 % of control | [3] 101 % of control

CC(=O)NC(CS)C(=O)O (configuration not stated)
inactive: dose: 50.0 mg/kg/injection, schedule: Q01DX009 (ip), vehicle: saline 111 % of control and 88 % of control | dose: 100.0 mg/kg/injection, schedule: Q01DX009 (ip), vehicle: saline 103 % of control and 104 % of control and 111 % of control | dose: 200.0 mg/kg/injection, schedule: Q01DX009 (ip), vehicle: saline 99 % of control (2×) and 109 % of control

O=[N+]([O-])c1ccc(-c2nc(/C=N/N3CCCCC3)cs2)o1
inactive: dose: 25.0 mg/kg/injection, schedule: Q01DX009 (ip), vehicle: saline with Tween-80 100 % of control | [8] 100 % of control | [9] 99 % of control

Cn1c(C(F)(F)F)nc2nc(Cl)c(Cl)nc21
inactive: dose: 25.0 mg/kg/injection, schedule: Q01DX005 (ip), vehicle: saline with Tween-80 108 % of control | [11] 106 % of control | [12] 101 % of control and 106 % of control | [13] 99 % of control and 103 % of control | dose: 400.0 mg/kg/injection, schedule: Q01DX005 (ip), vehicle: saline with Tween-80 101 % of control

CC(C)Cc1cc(C(F)(F)F)nc(NNc2nc(CC(C)C)cc(C(F)(F)F)n2)n1
inactive: [14] 90 % of control | [15] 87 % of control

Cc1ccc(S(=O)(=O)C23N=NC(C)(C)C2N=NC3(C)C)cc1 (configuration not stated)
inactive: [16] 101 % of control | [17] 100 % of control | [18] 98 % of control

CN=C(NC(C)C)c1ccc(NC(=O)c2ccc(C(=O)Nc3ccc(C(=NC)NC(C)C)cc3)cc2)cc1
active: dose: 96.0 mg/kg/injection, schedule: Q04DX003 (ip), vehicle: saline with Tween-80 154 % of control
inactive: dose: 32.0 mg/kg/injection, schedule: Q01DX009 (ip), vehicle: saline 122 % of control | dose: 64.0 mg/kg/injection, schedule: Q01DX009 (ip), vehicle: saline 109 % of control

NCC(=O)N1CCCC1C(=O)NCC(=O)NCC(=O)O (configuration not stated) (H-G[ξP]GG-OH)
inactive: [19] 101 % of control | [20] 107 % of control | dose: 100.0 mg/kg/injection, schedule: Q01DX005 (ip), vehicle: water 105 % of control | [21] 99 % of control | dose: 200.0 mg/kg/injection, schedule: Q01DX005 (ip), vehicle: water 107 % of control | dose: 400.0 mg/kg/injection, schedule: Q01DX005 (ip), vehicle: water 110 % of control

C=CCn1c(-c2ccccc2Cl)n[nH]c1=S
inactive: [8] 102 % of control | [9] 95 % of control | [10] 99 % of control

CN(C)/N=C/c1ccc(O)cc1
inactive: [14] 118 % of control | [15] 100 % of control and 101 % of control | dose: 200.0 mg/kg/injection, schedule: Q01DX009 (ip), vehicle: Klucel (hydroxypropylcellulose) (HPC) 102 % of control and 114 % of control

CC1C(N)CC2CC1C2(C)C (configuration not stated)
inactive: [8] 104 % of control | [9] 112 % of control

Cc1cccnc1-n1c(N)cc(=O)[nH]c1=S
inactive: dose: 50.0 mg/kg/injection, schedule: Q01DX001 (ip), vehicle: saline with Tween-80 100 % of control | dose: 100.0 mg/kg/injection, schedule: Q01DX001 (ip), vehicle: saline with Tween-80 100 % of control | dose: 200.0 mg/kg/injection, schedule: Q01DX001 (ip), vehicle: saline with Tween-80 86 % of control

CCOc1ccccc1N=Nc1c(C)nc(N)nc1OCC
inactive: [16] 100 % of control | [17] 110 % of control | [18] 110 % of control

O=C(Nc1ccccc1)P(=S)(c1ccccc1)c1ccccc1
inactive: [4] 101 % of control and 112 % of control | [5] 104 % of control | [6] 101 % of control and 106 % of control

CC(=O)OC1CCC2C3CCC4=CC(=O)C(C(O)(C(F)(F)F)C(F)(F)F)CC4(C)C3CCC12C (configuration not stated)
inactive: dose: 100.0 mg/kg/injection, schedule: Q01DX001 (sc), vehicle: steriod suspending solution 100 % of control | dose: 200.0 mg/kg/injection, schedule: Q01DX001 (sc), vehicle: steriod suspending solution 100 % of control | dose: 400.0 mg/kg/injection, schedule: Q01DX001 (sc), vehicle: steriod suspending solution 104 % of control

C[N+](C)([O-])Cc1ccccc1C[N+](C)(C)[O-]
inactive: [7] 102 % of control | dose: 120.0 mg/kg/injection, schedule: Q01DX005 (ip), vehicle: saline 110 % of control | dose: 240.0 mg/kg/injection, schedule: Q01DX005 (ip), vehicle: saline 112 % of control

Cc1ccc(C(c2ccccc2)c2ccc(C)cc2O)c(O)c1
inactive: [8] 118 % of control | [9] 105 % of control

CC(NCCNC(C)c1cccnc1)c1cccnc1 (configuration not stated)
inactive: [19] 102 % of control | [20] 110 % of control | [21] 94 % of control

C=CCN=C(NC#N)SC
inactive: [14] 103 % of control | [15] 111 % of control
